# Assay results reported in ChEMBL document CHEMBL4373736, “Synthesis and biological evaluation of panaxatriol derivatives against myocardial ischemia/reperfusion injury in the rat” (Eur J Med Chem, 2020).
# Calls of active or inactive are those of the source. The calls are words filed in the database; no cut-off is given here.
# How the values were obtained:
# [1] = tested on: Rattus norvegicus; assay: (§1) Cardioprotective activity in Sprague-Dawley rat model of LAD coronary artery ligation-induced ischemia/reperfusion assessed as infarct size of left ventricle size at 20 mg/kg, ig pretreated twice a day for 3 days and measured 24 hrs post-reperfusion by TTC staining based assay (reference value: 49.1 %); type: functional
# [2] = tested on: Cardiac muscle cell; assay: Cytoprotective activity against OGD/reperfusion induced injury in Sprague-Dawley rat cardiomyocytes assessed as effect on cell viability at 1 uM pretreated for 24 hrs followed by OGD for 2 hrs and subsequent reperfusion for 24 hrs (reference value: 43.9 to 45.4 +/- 1.1 %); type: functional
# [3] = tested on: Cardiac muscle cell; assay: Cytoprotective activity against OGD/reperfusion induced injury in Sprague-Dawley rat cardiomyocytes assessed as effect on cell viability at 10 uM pretreated for 24 hrs followed by OGD for 2 hrs and subsequent reperfusion for 24 hrs (reference value: 43.9 to 45.4 +/- 1.1 %); type: functional
# [4] = tested on: Cardiac muscle cell; assay: Cytoprotective activity against OGD/reperfusion induced injury in Sprague-Dawley rat cardiomyocytes assessed as effect on cell viability at 0.1 uM pretreated for 24 hrs followed by OGD for 2 hrs and subsequent reperfusion for 24 hrs (reference value: 43.9 to 45.4 +/- 1.1 %); type: functional
# [5] = tested on: Cardiac muscle cell; assay: Cytotoxicity against Sprague-Dawley rat cardiomyocytes assessed as inhibition of cell growth at 10 uM treated for 50 hrs by MTT assay; type: cell-based
# [6] = tested on: Rattus norvegicus; assay: as §1, with “40” for “20”; type: functional
# [7] = tested on: Rattus norvegicus; assay: Cardioprotective activity in ig dosed Sprague-Dawley rat model of LAD coronary artery ligation-induced ischemia/reperfusion assessed as as infarct size of left ventricle size pretreated twice a day for 3 days and measured 24 hrs post-reperfusion by TTC staining based assay; type: functional, organism-based
# [8] = tested on: Rattus norvegicus; assay: Cardioprotective activity in ig dosed Sprague-Dawley rat model of LAD coronary artery ligation-induced ischemia/reperfusion assessed as reduction in serum cardiac troponin1 level pretreated twice a day for 3 days and measured 24 hrs post-reperfusion; type: functional, organism-based
# [9] = tested on: Rattus norvegicus; assay: Cardioprotective activity in ig dosed Sprague-Dawley rat model of LAD coronary artery ligation-induced ischemia/reperfusion assessed as myocardial cell swelling at 10 to 40 mg/kg, ig pretreated twice a day for 3 days and measured 24 hrs post-reperfusion by hematoxylin and eosin staining based assay; type: functional, organism-based
# [10] = tested on: Rattus norvegicus; assay: Cardioprotective activity in ig dosed Sprague-Dawley rat model of LAD coronary artery ligation-induced ischemia/reperfusion assessed as change in myocardial structure at 10 to 40 mg/kg, ig pretreated twice a day for 3 days and measured 24 hrs post-reperfusion by hematoxylin and eosin staining based assay; type: functional, organism-based
SMILES,Activity [1],Activity [2],Activity [3],Activity [4],Activity [5],Activity [6],Activity [7],inhibition [8],Activity [9],Activity [10]
C[C@H](CS)C(=O)N1CCC[C@H]1C(=O)O [CAPTOPRIL],34%,–,–,–,–,–,–,–,–,–
CC1(C)CCC[C@](C)([C@H]2CC[C@]3(C)[C@@H]2[C@H](O)C[C@@H]2[C@@]4(C)CC[C@H](O)C(C)(C)[C@@H]4[C@H](O)C[C@]23C)O1,–,52.3%,61.9%,47.8%,Non-Toxic,30.6%,–,–,–,–
C=CCNc1nc2c(s1)C[C@]1(C)[C@H]3C[C@@H](O)[C@@H]4[C@@H]([C@@]5(C)CCCC(C)(C)O5)CC[C@@]4(C)[C@]3(C)CC(=O)[C@H]1C2(C)C,–,70%,77.4%,61.6%,Non-Toxic,–,–,–,–,–
CC1(C)CCC[C@](C)([C@H]2CC[C@]3(C)[C@@H]2[C@H](O)C[C@@H]2[C@@]4(C)Cc5sc(Br)nc5C(C)(C)[C@@H]4C(=O)C[C@]23C)O1,–,69.2%,77.2%,59.5%,Non-Toxic,–,–,–,–,–
CC(=O)Nc1nc2c(s1)C[C@]1(C)[C@H]3C[C@@H](O)[C@@H]4[C@@H]([C@@]5(C)CCCC(C)(C)O5)CC[C@@]4(C)[C@]3(C)CC(=O)[C@H]1C2(C)C,–,53.6%,61.2%,48.6%,Non-Toxic,–,–,–,–,–
CC1(C)CCC[C@](C)([C@H]2CC[C@]3(C)[C@@H]2[C@H](O)C[C@@H]2[C@@]4(C)Cc5c(n[nH]c5CO)C(C)(C)[C@@H]4[C@H](O)C[C@]23C)O1,–,64.6%,75.7%,55%,Non-Toxic,–,–,–,–,–
CC1(C)CCC[C@](C)([C@H]2CC[C@]3(C)[C@@H]2[C@H](O)C[C@@H]2[C@@]4(C)Cc5c(C(=O)O)noc5C(C)(C)[C@@H]4[C@H](O)C[C@]23C)O1,–,79.2%,89.2%,68.2%,Non-Toxic,20.5%,Dose-dependent effect,Dose-dependent effect,inactive,inactive
CC1(C)CCC[C@](C)([C@H]2CC[C@]3(C)[C@@H]2[C@H](O)C[C@@H]2[C@@]4(C)Cc5c([nH]c6ccc(Cl)cc56)C(C)(C)[C@@H]4C(=O)C[C@]23C)O1,–,57.3%,62.7%,51.7%,Non-Toxic,–,–,–,–,–
CC1(C)CCC[C@](C)([C@H]2CC[C@]3(C)[C@@H]2[C@H](O)C[C@@H]2[C@@]4(C)Cc5sc(-c6ccc(C(F)(F)F)cc6)nc5C(C)(C)[C@@H]4C(=O)C[C@]23C)O1,–,57.9%,62.9%,51.6%,Non-Toxic,–,–,–,–,–
CC1(C)CCC[C@](C)([C@H]2CC[C@]3(C)[C@@H]2[C@H](O)C[C@@H]2[C@@]4(C)Cc5cnn(-c6ccc(F)cc6)c5C(C)(C)[C@@H]4[C@H](O)C[C@]23C)O1,–,65.3%,73.2%,56.5%,Non-Toxic,–,–,–,–,–
CC1(C)CCC[C@](C)([C@H]2CC[C@]3(C)[C@@H]2[C@H](O)C[C@@H]2[C@@]4(C)Cc5cnoc5C(C)(C)[C@@H]4[C@H](O)C[C@]23C)O1,–,67.2%,76.9%,60.6%,Non-Toxic,–,–,–,–,–
CC1(C)CCC[C@](C)([C@H]2CC[C@]3(C)[C@@H]2[C@H](O)C[C@@H]2[C@@]4(C)Cc5nccnc5C(C)(C)[C@@H]4[C@@H](O)C[C@]23C)O1,–,62.3%,70.3%,54.9%,Non-Toxic,–,–,–,–,–
CC1(C)CCC[C@](C)([C@H]2CC[C@]3(C)[C@@H]2[C@H](O)C[C@@H]2[C@@]4(C)Cc5c(CO)nn(-c6ccccc6)c5C(C)(C)[C@@H]4[C@H](O)C[C@]23C)O1,–,56.6%,61.2%,51.6%,Non-Toxic,–,–,–,–,–
CC1(C)CCC[C@](C)([C@H]2CC[C@]3(C)[C@@H]2[C@H](O)C[C@@H]2[C@@]4(C)Cc5sc(CC#N)nc5C(C)(C)[C@@H]4C(=O)C[C@]23C)O1,–,64.6%,70.1%,58.6%,Non-Toxic,–,–,–,–,–
COc1ccc2[nH]c3c(c2c1)C[C@]1(C)[C@H]2C[C@@H](O)[C@@H]4[C@@H]([C@@]5(C)CCCC(C)(C)O5)CC[C@@]4(C)[C@]2(C)CC(=O)[C@H]1C3(C)C,–,79.6%,88%,70.1%,Non-Toxic,–,–,–,–,–
CCOC(=O)c1noc2c1C[C@]1(C)[C@H]3C[C@@H](O)[C@@H]4[C@@H]([C@@]5(C)CCCC(C)(C)O5)CC[C@@]4(C)[C@]3(C)C[C@@H](O)[C@H]1C2(C)C,–,67.9%,74.7%,57.5%,Non-Toxic,–,–,–,–,–
CC1(C)CCC[C@](C)([C@H]2CC[C@]3(C)[C@@H]2[C@H](O)C[C@@H]2[C@@]4(C)Cc5sc(NC(=N)N)nc5C(C)(C)[C@@H]4C(=O)C[C@]23C)O1,–,52.5%,57.2%,48.9%,Non-Toxic,–,–,–,–,–
CC1(C)CCC[C@](C)([C@H]2CC[C@]3(C)[C@@H]2[C@H](O)C[C@@H]2[C@@]4(C)Cc5sc(-c6ccccc6)nc5C(C)(C)[C@@H]4C(=O)C[C@]23C)O1,–,68%,75.3%,59.1%,Non-Toxic,–,–,–,–,–
COc1ccc(-c2nc3c(s2)C[C@]2(C)[C@H]4C[C@@H](O)[C@@H]5[C@@H]([C@@]6(C)CCCC(C)(C)O6)CC[C@@]5(C)[C@]4(C)CC(=O)[C@H]2C3(C)C)cc1,–,71.3%,78.5%,64.9%,Non-Toxic,–,–,–,–,–
CCOC(=O)c1[nH]nc2c1C[C@]1(C)[C@H]3C[C@@H](O)[C@@H]4[C@@H]([C@@]5(C)CCCC(C)(C)O5)CC[C@@]4(C)[C@]3(C)C[C@@H](O)[C@H]1C2(C)C,–,54.1%,60.4%,48%,Non-Toxic,–,–,–,–,–
